In ChEMBL document CHEMBL5465560, “Selectivity Literature for EUbOPEN Chemogenomic Library” (2024):

Tests used:
[1] = molecular target: Homeodomain-interacting protein kinase 2 (Homo sapiens, UniProt Q9H2X6); assay: Selectivity interaction (KinomeScan (DiscoverX)) EUB0000092b HIPK2; conditions: at 10 µM
[2] = molecular target: T1, Serine/threonine-protein kinase RIO3 (Homo sapiens) (UniProt O14730); assay: Selectivity interaction (KinomeScan (DiscoverX)) EUB0000666a RIOK3; conditions: at 10 µM
T1 sequence (whole entry): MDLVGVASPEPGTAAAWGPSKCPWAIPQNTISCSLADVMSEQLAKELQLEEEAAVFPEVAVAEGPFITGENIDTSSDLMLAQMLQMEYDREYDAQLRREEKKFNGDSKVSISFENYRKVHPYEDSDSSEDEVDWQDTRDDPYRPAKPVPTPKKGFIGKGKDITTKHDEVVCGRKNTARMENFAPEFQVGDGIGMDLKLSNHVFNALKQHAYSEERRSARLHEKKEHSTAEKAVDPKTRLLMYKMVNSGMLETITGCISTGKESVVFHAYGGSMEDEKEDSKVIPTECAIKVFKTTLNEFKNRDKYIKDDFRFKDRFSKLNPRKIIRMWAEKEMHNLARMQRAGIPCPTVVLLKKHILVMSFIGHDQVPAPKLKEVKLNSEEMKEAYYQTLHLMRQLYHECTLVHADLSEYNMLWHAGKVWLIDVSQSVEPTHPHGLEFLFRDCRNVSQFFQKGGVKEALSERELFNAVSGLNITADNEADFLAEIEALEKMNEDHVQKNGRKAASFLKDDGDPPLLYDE

[3] = molecular target: Voltage-gated inwardly rectifying potassium channel KCNH2 (Homo sapiens, UniProt Q12809); assay: Selectivity interaction (HERG dofetilide binding assay, human recombinant ) EUB0000877a KCNH2
Sequence of Voltage-gated inwardly rectifying potassium channel KCNH2 (Q12809 whole entry): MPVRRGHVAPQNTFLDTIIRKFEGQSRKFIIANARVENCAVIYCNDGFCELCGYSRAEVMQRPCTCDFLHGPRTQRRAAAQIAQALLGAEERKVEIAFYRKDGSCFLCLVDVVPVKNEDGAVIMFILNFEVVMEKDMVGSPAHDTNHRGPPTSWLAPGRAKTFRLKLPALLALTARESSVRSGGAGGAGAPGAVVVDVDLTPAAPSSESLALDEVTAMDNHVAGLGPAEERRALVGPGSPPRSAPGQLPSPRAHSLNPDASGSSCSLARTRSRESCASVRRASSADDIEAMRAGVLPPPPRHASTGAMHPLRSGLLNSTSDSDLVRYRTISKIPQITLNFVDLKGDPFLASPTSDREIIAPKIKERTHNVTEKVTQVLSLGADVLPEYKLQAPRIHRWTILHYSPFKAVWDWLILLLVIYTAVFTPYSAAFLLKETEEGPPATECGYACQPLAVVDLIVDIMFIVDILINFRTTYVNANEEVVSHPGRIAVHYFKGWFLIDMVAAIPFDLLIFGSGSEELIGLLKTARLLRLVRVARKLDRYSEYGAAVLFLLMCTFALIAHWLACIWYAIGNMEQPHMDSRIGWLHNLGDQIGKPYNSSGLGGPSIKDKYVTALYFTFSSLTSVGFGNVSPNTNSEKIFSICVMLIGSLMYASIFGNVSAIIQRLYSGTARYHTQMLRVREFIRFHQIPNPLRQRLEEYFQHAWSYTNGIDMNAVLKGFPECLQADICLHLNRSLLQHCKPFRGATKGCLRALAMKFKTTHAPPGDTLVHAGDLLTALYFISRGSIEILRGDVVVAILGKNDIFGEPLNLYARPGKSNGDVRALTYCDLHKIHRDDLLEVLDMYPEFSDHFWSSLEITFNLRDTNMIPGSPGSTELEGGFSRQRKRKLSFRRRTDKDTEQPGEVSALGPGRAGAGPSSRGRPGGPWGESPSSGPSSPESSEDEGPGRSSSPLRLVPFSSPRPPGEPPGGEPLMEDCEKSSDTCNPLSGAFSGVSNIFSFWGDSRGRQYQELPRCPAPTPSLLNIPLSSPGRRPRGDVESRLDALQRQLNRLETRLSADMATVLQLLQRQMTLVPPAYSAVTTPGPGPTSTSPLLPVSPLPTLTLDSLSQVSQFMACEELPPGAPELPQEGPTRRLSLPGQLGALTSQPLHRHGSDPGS

[4] = molecular target: DNA (cytosine-5)-methyltransferase 1 (Homo sapiens) (UniProt P26358); assay: Selectivity interaction (Transferase panel (protein, RNA, and DNA methyltransferases. and EP300 (acetyltransferase))) EUB0000270b DNMT1
Sequence of DNA (cytosine-5)-methyltransferase 1 (Homo sapiens) (P26358 whole entry): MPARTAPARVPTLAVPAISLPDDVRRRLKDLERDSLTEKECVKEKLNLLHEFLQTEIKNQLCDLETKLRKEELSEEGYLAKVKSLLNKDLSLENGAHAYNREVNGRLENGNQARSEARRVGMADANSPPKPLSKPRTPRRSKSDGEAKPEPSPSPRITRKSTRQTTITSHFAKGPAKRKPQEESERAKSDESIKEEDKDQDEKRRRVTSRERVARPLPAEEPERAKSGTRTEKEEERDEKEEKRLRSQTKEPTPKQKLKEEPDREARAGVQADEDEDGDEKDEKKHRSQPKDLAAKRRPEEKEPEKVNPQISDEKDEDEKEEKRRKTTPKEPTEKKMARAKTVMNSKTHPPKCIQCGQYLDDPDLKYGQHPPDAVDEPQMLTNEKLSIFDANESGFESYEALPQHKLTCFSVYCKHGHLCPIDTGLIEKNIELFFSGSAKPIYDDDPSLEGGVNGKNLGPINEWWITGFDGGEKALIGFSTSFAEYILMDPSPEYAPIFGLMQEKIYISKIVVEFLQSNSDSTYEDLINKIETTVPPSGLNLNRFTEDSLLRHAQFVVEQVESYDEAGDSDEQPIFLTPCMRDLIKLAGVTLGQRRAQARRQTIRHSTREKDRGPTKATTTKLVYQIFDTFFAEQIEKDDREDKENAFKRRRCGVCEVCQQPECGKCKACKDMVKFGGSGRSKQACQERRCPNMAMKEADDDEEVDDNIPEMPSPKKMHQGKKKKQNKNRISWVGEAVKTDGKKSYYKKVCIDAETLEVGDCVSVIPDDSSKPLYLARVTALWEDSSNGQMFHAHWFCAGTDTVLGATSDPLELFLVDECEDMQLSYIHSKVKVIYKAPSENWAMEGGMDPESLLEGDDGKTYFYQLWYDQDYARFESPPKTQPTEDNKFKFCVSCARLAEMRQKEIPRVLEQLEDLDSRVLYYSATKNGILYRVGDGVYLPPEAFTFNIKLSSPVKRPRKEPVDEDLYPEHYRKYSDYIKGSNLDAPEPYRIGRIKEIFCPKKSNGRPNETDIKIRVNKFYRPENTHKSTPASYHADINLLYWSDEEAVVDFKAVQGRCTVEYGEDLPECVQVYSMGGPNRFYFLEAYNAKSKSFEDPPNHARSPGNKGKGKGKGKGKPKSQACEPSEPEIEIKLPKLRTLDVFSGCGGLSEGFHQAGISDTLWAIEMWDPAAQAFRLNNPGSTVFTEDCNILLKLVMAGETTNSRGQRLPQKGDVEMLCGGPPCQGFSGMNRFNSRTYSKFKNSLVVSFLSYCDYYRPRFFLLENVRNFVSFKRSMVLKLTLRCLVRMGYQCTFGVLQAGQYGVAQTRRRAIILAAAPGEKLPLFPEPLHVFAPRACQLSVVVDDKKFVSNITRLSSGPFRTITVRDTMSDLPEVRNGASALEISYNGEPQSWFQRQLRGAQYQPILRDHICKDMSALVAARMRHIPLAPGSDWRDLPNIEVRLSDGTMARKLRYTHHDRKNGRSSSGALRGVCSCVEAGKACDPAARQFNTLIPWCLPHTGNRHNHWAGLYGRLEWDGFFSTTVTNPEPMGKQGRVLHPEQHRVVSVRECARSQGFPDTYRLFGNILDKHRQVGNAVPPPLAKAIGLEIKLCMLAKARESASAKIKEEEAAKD

[5] = molecular target: Mitogen-activated protein kinase kinase kinase 11 (Homo sapiens) (UniProt Q16584); assay: Selectivity interaction (ActivX KiNativ screen (kinase selectivity in THP-1 cell lysates)) EUB0000639a MAP3K11; assay type: subcellular; conditions: lysate, at 0.2 µM
[6] = molecular target: T2, Serine/threonine-protein kinase STK11 (Homo sapiens) (UniProt Q15831); assay: Selectivity interaction (ActivX KiNativ screen (kinase selectivity in THP-1 cell lysates)) EUB0000639a STK11; assay type: subcellular; conditions: lysate
T2 sequence (whole entry): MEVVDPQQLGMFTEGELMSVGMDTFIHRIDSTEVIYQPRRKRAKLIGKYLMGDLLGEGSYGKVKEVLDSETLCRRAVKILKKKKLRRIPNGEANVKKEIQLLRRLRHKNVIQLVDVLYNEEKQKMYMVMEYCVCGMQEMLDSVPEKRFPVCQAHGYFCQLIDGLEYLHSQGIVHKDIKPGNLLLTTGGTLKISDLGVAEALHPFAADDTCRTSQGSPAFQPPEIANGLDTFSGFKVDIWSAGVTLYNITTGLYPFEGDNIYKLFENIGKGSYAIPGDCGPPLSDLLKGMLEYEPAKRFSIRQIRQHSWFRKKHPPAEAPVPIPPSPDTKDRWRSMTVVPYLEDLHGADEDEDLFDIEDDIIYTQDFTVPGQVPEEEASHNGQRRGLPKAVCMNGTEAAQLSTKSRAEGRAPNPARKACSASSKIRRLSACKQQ

[7] = molecular target: Dual specificity protein kinase CLK3 (Homo sapiens, UniProt P49761); assay: Selectivity interaction (ActivX KiNativ screen (kinase selectivity in THP-1 cell lysates)) EUB0000639a CLK3; assay type: subcellular; conditions: lysate
Sequence of Dual specificity protein kinase CLK3 (P49761 whole entry, looked up): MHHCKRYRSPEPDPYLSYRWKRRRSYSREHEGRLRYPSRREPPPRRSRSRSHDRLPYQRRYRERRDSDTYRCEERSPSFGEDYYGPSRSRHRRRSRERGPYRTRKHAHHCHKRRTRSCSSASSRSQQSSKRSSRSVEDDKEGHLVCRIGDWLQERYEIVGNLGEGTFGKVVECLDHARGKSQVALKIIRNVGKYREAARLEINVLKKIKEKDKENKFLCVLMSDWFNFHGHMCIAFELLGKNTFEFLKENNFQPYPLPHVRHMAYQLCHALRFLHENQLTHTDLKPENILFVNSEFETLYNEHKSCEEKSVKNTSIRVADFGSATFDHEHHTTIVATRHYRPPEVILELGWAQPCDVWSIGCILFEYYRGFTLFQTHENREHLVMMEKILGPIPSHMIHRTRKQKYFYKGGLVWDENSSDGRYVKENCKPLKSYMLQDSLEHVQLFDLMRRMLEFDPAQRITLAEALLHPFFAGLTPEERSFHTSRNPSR

[8] = molecular target: Cyclin-dependent kinase 9 (Homo sapiens, UniProt P50750); assay: Selectivity interaction (KinomeScan (DiscoverX)) EUB0000607a CDK9; conditions: at 10 µM
Sequence of Cyclin-dependent kinase 9 (P50750 whole entry): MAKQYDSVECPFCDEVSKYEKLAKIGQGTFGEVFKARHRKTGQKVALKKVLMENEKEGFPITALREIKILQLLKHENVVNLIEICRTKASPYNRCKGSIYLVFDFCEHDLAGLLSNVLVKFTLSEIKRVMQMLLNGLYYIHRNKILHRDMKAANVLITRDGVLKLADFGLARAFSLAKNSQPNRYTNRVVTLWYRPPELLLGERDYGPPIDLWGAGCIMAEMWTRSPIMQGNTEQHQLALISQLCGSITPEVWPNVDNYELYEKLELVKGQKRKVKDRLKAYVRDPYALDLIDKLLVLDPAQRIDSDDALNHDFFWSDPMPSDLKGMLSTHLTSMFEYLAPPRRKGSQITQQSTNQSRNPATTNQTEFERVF

[9] = molecular target: T3, Serine/threonine-protein kinase TBK1 (Homo sapiens) (UniProt Q9UHD2); assay: Selectivity interaction (SelectScreen profiling (Invitrogen)) EUB0000607a TBK1; conditions: at 2 µM
T3 sequence (whole entry): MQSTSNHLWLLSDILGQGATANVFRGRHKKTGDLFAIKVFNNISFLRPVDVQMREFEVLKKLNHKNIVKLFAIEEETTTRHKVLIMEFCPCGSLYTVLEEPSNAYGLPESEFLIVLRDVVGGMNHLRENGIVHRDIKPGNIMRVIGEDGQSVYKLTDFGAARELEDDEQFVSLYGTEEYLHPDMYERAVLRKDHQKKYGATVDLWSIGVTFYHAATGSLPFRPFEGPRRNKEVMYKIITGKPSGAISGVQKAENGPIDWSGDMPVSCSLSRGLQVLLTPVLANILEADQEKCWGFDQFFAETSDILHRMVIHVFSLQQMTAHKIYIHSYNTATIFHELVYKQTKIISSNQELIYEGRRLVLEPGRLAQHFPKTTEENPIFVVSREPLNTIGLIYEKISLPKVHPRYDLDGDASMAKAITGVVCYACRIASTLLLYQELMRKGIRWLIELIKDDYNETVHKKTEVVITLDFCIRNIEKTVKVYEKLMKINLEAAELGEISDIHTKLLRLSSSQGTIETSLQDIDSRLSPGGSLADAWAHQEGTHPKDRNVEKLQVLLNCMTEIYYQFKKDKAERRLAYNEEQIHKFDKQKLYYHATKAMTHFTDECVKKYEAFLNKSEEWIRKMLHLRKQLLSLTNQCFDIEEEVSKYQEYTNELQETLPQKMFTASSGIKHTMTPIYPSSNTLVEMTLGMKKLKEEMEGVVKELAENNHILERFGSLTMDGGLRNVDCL

[10] = tested on: Phosphatidylinositol 4,5-bisphosphate 3-kinase catalytic subunit alpha isoform (Homo sapiens), P42336 [E542K]; conditions: at 10 µM
[11] = tested on: Tyrosine-protein kinase ABL1 (Homo sapiens), P00519 [H396P]; assay: Selectivity interaction (KinomeScan (DiscoverX)) EUB0001049a ABL1; conditions: at 1 µM
[12] = molecular target: Protein arginine N-methyltransferase 1 (Homo sapiens, UniProt Q99873); assay: Selectivity interaction (Methyltransferase screen (radiometric assays, panel of 8 PRMTs, 21 protein lysine methyltransferases, 3 DNA methyltransferases, and one RNA methyltransferase)) EUB0000271b PRMT1
Sequence of Protein arginine N-methyltransferase 1 (Q99873 whole entry, looked up): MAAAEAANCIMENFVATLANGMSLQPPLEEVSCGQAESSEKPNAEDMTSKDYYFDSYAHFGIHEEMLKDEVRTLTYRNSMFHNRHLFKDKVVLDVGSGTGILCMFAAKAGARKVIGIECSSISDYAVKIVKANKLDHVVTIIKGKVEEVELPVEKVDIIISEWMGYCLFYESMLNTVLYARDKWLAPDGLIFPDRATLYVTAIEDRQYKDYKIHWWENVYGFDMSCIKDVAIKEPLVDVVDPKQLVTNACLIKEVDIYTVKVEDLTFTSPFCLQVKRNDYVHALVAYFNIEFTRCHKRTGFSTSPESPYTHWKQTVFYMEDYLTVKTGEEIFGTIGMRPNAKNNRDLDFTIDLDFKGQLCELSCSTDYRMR

[13] = molecular target: Serine/threonine-protein kinase 10 (Homo sapiens) (UniProt O94804); assay: Selectivity interaction (KinomeScan (DiscoverX)) EUB0000695a STK10; conditions: at 100 nM
Sequence of Serine/threonine-protein kinase 10 (Homo sapiens) (O94804 whole entry, looked up): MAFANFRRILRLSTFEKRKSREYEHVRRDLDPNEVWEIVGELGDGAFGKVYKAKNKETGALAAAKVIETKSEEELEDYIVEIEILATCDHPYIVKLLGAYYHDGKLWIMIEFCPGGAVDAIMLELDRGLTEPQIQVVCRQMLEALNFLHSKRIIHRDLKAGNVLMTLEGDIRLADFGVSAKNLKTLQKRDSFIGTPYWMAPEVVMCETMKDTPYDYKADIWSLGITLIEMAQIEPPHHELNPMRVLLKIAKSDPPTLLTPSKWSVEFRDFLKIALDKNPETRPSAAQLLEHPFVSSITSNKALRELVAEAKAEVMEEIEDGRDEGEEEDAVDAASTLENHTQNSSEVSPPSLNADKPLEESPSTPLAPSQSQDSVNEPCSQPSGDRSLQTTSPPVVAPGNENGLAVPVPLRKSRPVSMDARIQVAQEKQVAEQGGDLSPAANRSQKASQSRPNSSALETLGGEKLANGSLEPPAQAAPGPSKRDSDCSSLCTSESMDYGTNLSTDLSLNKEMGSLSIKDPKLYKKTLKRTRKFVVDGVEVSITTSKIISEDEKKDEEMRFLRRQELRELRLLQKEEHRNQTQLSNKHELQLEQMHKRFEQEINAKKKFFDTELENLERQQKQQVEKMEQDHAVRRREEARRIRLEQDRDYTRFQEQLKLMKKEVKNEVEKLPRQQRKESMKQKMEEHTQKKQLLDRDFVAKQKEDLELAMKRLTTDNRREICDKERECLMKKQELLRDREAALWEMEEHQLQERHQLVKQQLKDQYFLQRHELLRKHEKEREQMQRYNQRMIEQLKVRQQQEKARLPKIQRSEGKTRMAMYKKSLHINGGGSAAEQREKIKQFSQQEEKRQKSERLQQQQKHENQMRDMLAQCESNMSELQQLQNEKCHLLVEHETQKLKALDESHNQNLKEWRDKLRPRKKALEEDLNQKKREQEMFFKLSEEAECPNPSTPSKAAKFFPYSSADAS

[14] = molecular target: Cyclin-dependent kinase-like 3 (Homo sapiens) (UniProt Q8IVW4); assay: Selectivity interaction (Ambit KINOMEscan and KiNATiv profiling in Jurkat cells) EUB0000090b CDKL3; assay type: cell-based; conditions: at 1 µM

CCC(=O)N1CCN(c2ccc(-n3c(=O)ccc4cnc5ccc(-c6cnc7ccccc7c6)cc5c43)cc2C(F)(F)F)CC1
% of control [1]: 58%

O=C(NOC[C@H](O)CO)c1ccc(F)c(F)c1Nc1ccc(I)cc1F
% of control [2]: 100%

CCC(=O)N1CC[C@H](Nc2ncnc3c2CN(c2cnc(OC)c(C(F)(F)F)c2)CC3)C1 [LENIOLISIB]
IC50 [3]: > 30 µM

Cc1cc(CN)cc(C)c1-c1ncn(C)c1-c1cncn1C
% activity ([4]; at 1 µM): > 90% | % activity ([4]; at 10 µM): > 80%

CC[C@@H]1[C@H](F)C(=O)N[C@@H]1COc1nccc2cc(C(N)=O)c(OC)cc12 [ZIMLOVISERTIB]
% of inhibition [5]: -15.6% | % of inhibition ([6]; at 0.01 µM): -0.5% | % of inhibition ([6]; at 0.04 µM): 12.2% | % of inhibition ([6]; at 0.2 µM): 34.8% | % of inhibition ([6]; at 1 µM): 58.5% | % of inhibition ([6]; at 5 µM): 85.1% | % of inhibition ([7]; at 0.01 µM): 8.2% | % of inhibition ([7]; at 0.04 µM): 15.5% | % of inhibition ([7]; at 0.2 µM): 0.7% | % of inhibition ([7]; at 1 µM): 5.8% | % of inhibition ([7]; at 5 µM): 12.1%

CNC(=O)Nc1ccc(-c2nc(N3CC4CCC(C3)O4)c3cnn(C4CCC5(CC4)OCCO5)c3n2)cc1
% of control [8]: 100% | % of inhibition [9]: 2% | % of control [10]: 14%

COc1cc(Nc2nc(C)cc(-c3cnn4nc(OC)ccc34)n2)cc(C(F)(F)F)c1
% of control [11]: 73%

Cc1cc(C)cc([C@@H]2c3cc(C)ccc3NC(=O)CN2C(=O)c2ccc(Br)s2)c1
% of activity ([12]; at 1 µM): 98.3% | % of activity ([12]; at 10 µM): 94.3%

Cc1cc(F)c(C(=O)Nc2cccc(-c3nncn3C(C)C)n2)cc1-n1cnc(C2CC2)c1
% of control [13]: 100%

CN(C)C/C=C/C(=O)Nc1ccc(C(=O)N2CCCC(Nc3ncc(Cl)c(-c4c[nH]c5ccccc45)n3)C2)cc1 (centres undefined)
% of control [14]: 100%
